“Also recorded” adds a separate entry of the source.
Legend:
[1] = system: HCMV-infected subconfluent LU cells; assay: cell cycle distribution (DNA content by flow cytometry) after HCMV infection of subconfluent LU cells with PAA; assay type: cell-based, human; conditions: for Percent Cells in phase G0/G1 / Percent Cells in phase G2/M / Percent Cells in phase S: HCMV 5 PFU/cell + PAA 100 μg/ml
[2] = system: human lung fibroblasts; conditions: 100 μg/ml (0.75 mM); cited from earlier work
[3] = system: non-infected LU cells; conditions: human, 15 μM
[4] = system: HCMV; assay: HCMV DNA abundance in infected LU cells by slot blot hybridization; assay type: cell-based, Human cytomegalovirus strain AD169; conditions: density-arrested LU cells, 72 hr post-infection
[5] = system: HCMV; assay: infectious HCMV yield by plaque assay; assay type: cell-based, Human cytomegalovirus strain AD169
[6] = tolerated dose in animals; assay type: in vivo; conditions: printed 'tolerated by rate'
Excerpt: The preferred dosage of inhibitor of cyclin E/Cdk2 activity in a parenteral administration will vary, depending upon the extent of the virus infection, the severity of the symptoms associated with the infection and patient age, weight and medical history. The number of administrations of the parenteral composition will also vary according to the response of the individual patient to the treatment. In one exemplary application. the dosage of inhibitor of cyclin E/Cdk2 activity would vary with the type of disease and the route of administration. Further studies with animal models of infection will completely define projected doses. […] Weaker Cdk2 inhibitors will be needed at higher concentrations, and stronger, at lower.

[7] = system: HCMV-infected LU cells; assay: hematoxylin and eosin staining of HCMV-infected LU cells; conditions: 15 μM; 96 hr after infection
[8] = system: non-infected LU cells; assay: effects on non-infected LU cells (morphology, flow cytometry, BrdU incorporation); conditions: 15 μM for 96 hr

Structure (SMILES): O=C(O)CP(=O)(O)O [PAA, phosphonoacetic acid]
- Percent Cells in phase G0/G1 ([1]; 0 hours after treatment): 93.3 (1.2) percent
- Percent Cells in phase G2/M ([1]; 0 hours after treatment): 5.1 (1.0) percent
- Percent Cells in phase S ([1]; 0 hours after treatment): 1.6 (0.2) percent
- Percent Cells in phase G0/G1 ([1]; 24 hours after treatment): 97.2 (0.4) percent
- Percent Cells in phase G2/M ([1]; 24 hours after treatment): 1.9 (0.3) percent
- Percent Cells in phase S ([1]; 24 hours after treatment): 0.9 (0.1) percent
- Percent Cells in phase G0/G1 ([1]; 48 hours after treatment): 97.1 (0.8) percent
- Percent Cells in phase G2/M ([1]; 48 hours after treatment): 1.3 (0.4) percent
- Percent Cells in phase S ([1]; 48 hours after treatment): 1.5 (0.4) percent
- Percent Cells in phase G0/G1 ([1]; 72 hours after treatment): 97.2 (0.3) percent
- Percent Cells in phase G2/M ([1]; 72 hours after treatment): 0.9 (0.1) percent
- Percent Cells in phase S ([1]; 72 hours after treatment): 1.9 (0.3) percent
- increase in DNA content after HCMV infection ([1]; subconfluent LU cells infected in the presence of PAA): no detectable increase in DNA content
- effect on viral DNA replication [2]: blocks viral DNA replication

Structure (SMILES): Cn1cnc2c(NCc3ccccc3)nc(NCCO)nc21 [olomoucine]
- cells able to incorporate bromodeoxyuridine (BrdU) after removal of the inhibitor [3]: more than 70%

Structure (SMILES): CC[C@H](CO)Nc1nc(NCc2ccccc2)c2ncn(C(C)C)c2n1 [roscovitine]
- HCMV DNA abundance reduced ([4]; 1 μM): ~50%
- viral DNA abundance reduced ([4]; 10 μM): > 90%
- infectious HCMV yields reduced ([5]; 2.5 μM, 96 hr post-infection): > 90%
- inhibition at 10 µM ([5]; Human betaherpesvirus 5, 96 h, read-out: inhibition of infectious HCMV yields): > 99.9%
- tolerated dose [6]: 3 µg/kg
- morphology of HCMV-infected cells [7]: clearly dying or dead
- morphological changes of non-infected LU cells [8]: no morphological changes; also recorded: did not present with any obvious morphological changes
- cell cycle state of non-infected cells ([8]; flow cytometry): arrested in G0/G1 or G2/M phase

— US6486166B1, “Suppression of cyclin kinase 2 activity for prevention and treatment of DNA viral infections” (Board of Regents, The University of Texas, priority 1997, dated 2002)
